Source: ChEMBL document CHEMBL1201862, “PubChem BioAssay data set” (2004)
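In this assay, cells in 96-well plates receive the compound at five concentrations for 48 hours. Endpoints are linearly interpolated between the surrounding concentrations. GI50: concentration for 50% inhibition of growth.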 Activity calls are given as the source filed them. Cut-off read from the data, not from the text of the source: active = GI50 up to about 1.1 µM and inactive = higher.

How the values were obtained:
Experiment in all cases: NCI-60 cell line screen, 48 h
[1] = test system: 786-0
[2] = test system: A498
[3] = test system: A549
[4] = test system: ACHN
[5] = test system: BT-549
[6] = test system: CAKI-1
[7] = test system: CCRF-CEM
[8] = test system: COLO 205
[9] = test system: DU-145
[10] = test system: EKVX
[11] = test system: HCC 2998
[12] = test system: HCT-116
[13] = test system: HCT-15
[14] = test system: HL-60
[15] = test system: HOP-62
[16] = test system: HOP-92
[17] = test system: HT-29
[18] = test system: Hs-578T
[19] = test system: IGROV-1
[20] = test system: K562
[21] = test system: KM12
[22] = test system: LOX IMVI
[23] = test system: M14
[24] = test system: MCF7
[25] = test system: MDA-MB-231
[26] = test system: MDA-MB-435
[27] = test system: MDA-N
[28] = test system: MOLT-4
[29] = test system: Malme-3M
[30] = test system: NCI-H226
[31] = test system: NCI-H23
[32] = test system: NCI-H460
[33] = test system: NCI-H522
[34] = test system: NCI/ADR-RES
[35] = test system: OVCAR-3
[36] = test system: OVCAR-4
[37] = test system: OVCAR-5
[38] = test system: OVCAR-8
[39] = test system: PC-3
[40] = test system: RPMI-8226
[41] = test system: SF-268
[42] = test system: SF-295
[43] = test system: SF-539
[44] = test system: SK-MEL-2
[45] = test system: SK-MEL-5
[46] = test system: SK-OV-3
[47] = test system: SN12C
[48] = test system: SNB-19
[49] = test system: SNB-75
[50] = test system: SR
[51] = test system: SW-620
[52] = test system: T47D
[53] = test system: TK-10
[54] = test system: U-251
[55] = test system: UACC-257
[56] = test system: UACC-62

CN(/N=C/c1ccc(Cl)c(Cl)c1)C1=NCCCCN1
GI50 [1]: 20.6 µM (inactive)
GI50 [2]: 18.2 µM (inactive)
GI50 [3]: 62.4 µM (inactive)
GI50 [4]: 44.6 µM (inactive)
GI50 [5]: 31 µM (inactive)
GI50 [6]: 23.9 µM (inactive)
GI50 [7]: 31 µM (inactive)
GI50 [8]: 16.7 µM (inactive)
GI50 [9]: 91.2 µM (inactive)
GI50 [10]: > 100 µM (inactive)
GI50 [11]: 24.9 µM (inactive)
GI50 [12]: 24.4 µM (inactive)
GI50 [13]: 26.2 µM
GI50 [14]: 19.3 µM (inactive)
GI50 [15]: 16.7 µM (inactive)
GI50 [16]: 18.9 µM (inactive)
GI50 [17]: 29.2 µM (inactive)
GI50 [18]: 61 µM (inactive)
GI50 [19]: 52.6 µM (inactive)
GI50 [20]: 21.4 µM (inactive)
GI50 [21]: 19.6 µM (inactive)
GI50 [22]: 13.2 µM (inactive)
GI50 [23]: 15.4 µM (inactive)
GI50 [24]: 19.8 µM (inactive)
GI50 [25]: 32 µM (inactive)
GI50 [26]: 16.3 µM (inactive)
GI50 [27]: 19.9 µM (inactive)
GI50 [28]: 21.8 µM (inactive)
GI50 [29]: 17.8 µM (inactive)
GI50 [30]: 2.45 µM (inactive)
GI50 [31]: 55.5 µM (inactive)
GI50 [32]: 42.5 µM (inactive)
GI50 [33]: 17.8 µM (inactive)
GI50 [34]: 66.8 µM (inactive)
GI50 [35]: 41.6 µM (inactive)
GI50 [36]: 44.1 µM (inactive)
GI50 [37]: 27.9 µM (inactive)
GI50 [38]: 72.3 µM (inactive)
GI50 [39]: 25.3 µM (inactive)
GI50 [40]: 27.9 µM (inactive)
GI50 [41]: 51.2 µM (inactive)
GI50 [42]: 34.4 µM (inactive)
GI50 [43]: 29.3 µM (inactive)
GI50 [44]: 20.1 µM (inactive)
GI50 [45]: 14.6 µM (inactive)
GI50 [46]: 53.3 µM (inactive)
GI50 [47]: 42 µM (inactive)
GI50 [48]: 45.4 µM (inactive)
GI50 [49]: 50.2 µM (inactive)
GI50 [50]: 41.3 µM (inactive)
GI50 [51]: 15.6 µM (inactive)
GI50 [52]: 16.6 µM (inactive)
GI50 [53]: 69.8 µM (inactive)
GI50 [54]: 26.6 µM (inactive)
GI50 [55]: 22.6 µM (inactive)
GI50 [56]: 23 µM (inactive)
